Data as given in paper PMC10574601, “Benzophenanthridine Alkaloid Chelerythrine Elicits Necroptosis of Gastric Cancer Cells via Selective Conjugation at the Redox Hyperreactive C-Terminal Sec^498 Residue of Cytosolic Selenoprotein Thioredoxin Reductase” (Molecules, 2023).
pIC50: −log10 of the molar value.

Experiments:
[1] = biological target: T1, thioredoxin reductase 1 (TXNRD1) (Rattus norvegicus, UniProt O89049); test: DTNB reduction assay after […] h incubation; desalting shows irreversibility; type: biochemical
T1 construct: recombinant rat TXNRD1, wild-type
T1 sequence (O89049 1-499): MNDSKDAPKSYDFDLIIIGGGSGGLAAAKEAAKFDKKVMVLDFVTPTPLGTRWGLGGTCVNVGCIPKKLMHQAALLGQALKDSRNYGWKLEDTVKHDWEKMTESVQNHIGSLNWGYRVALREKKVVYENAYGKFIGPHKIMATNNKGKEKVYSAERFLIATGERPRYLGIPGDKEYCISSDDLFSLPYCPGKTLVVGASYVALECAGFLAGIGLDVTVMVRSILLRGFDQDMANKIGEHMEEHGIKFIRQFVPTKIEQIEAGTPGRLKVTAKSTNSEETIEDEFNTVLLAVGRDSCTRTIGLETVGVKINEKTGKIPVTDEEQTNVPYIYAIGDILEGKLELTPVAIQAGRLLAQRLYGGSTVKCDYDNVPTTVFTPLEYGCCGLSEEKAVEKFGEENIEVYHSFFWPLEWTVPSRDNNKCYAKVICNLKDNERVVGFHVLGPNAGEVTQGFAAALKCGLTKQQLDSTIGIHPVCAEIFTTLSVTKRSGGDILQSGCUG

[2] = biological target: T1, thioredoxin reductase 1 (TXNRD1); test: NADPH oxidation at […] nm with […] TXNRD1; type: biochemical

| SMILES | pIC50 [1] | NADPH oxidation at 340 nm with 30 nM TXNRD1 [2] |
| --- | --- | --- |
| COc1ccc2c(c[n+](C)c3c4cc5c(cc4ccc23)OCO5)c1OC [Che, chelerythrine] | 4.18 |  |
| C[n+]1cc2c3c(ccc2c2ccc4cc5c(cc4c21)OCO5)OCO3 [San, sanguinarine] | 4.33 |  |
| O=C1C=CC(=O)c2c(O)cccc21 [juglone, 5-Hydroxy-1,4-naphthoquinone] |  | juglone, a substrate of TXNRD1, exhibited strong NADPH oxidation |
